Reference: ChEMBL document CHEMBL1201862, “PubChem BioAssay data set” (2004)
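Interpolation was linear, between the two tested concentrations surrounding the appropriate level; five concentrations were tested over 48 hours in 96-well plates. Abbreviation: GI50, concentration required for 50% inhibition of growth.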 Activity calls are given as the source filed them. Rule as the data show it: active = GI50 up to about 1.1 µM and inactive = higher.

Legend:
Test in all cases: NCI anticancer screen, dose series, 48 h
M14 = test system: M14
NCI-H522 = test system: NCI-H522
786-0 = test system: 786-0
RPMI-8226 = test system: RPMI-8226
SK-OV-3 = test system: SK-OV-3
EKVX = test system: EKVX
NCI-H23 = test system: NCI-H23
SN12C = test system: SN12C
NCI-H460 = test system: NCI-H460
HCT-15 = test system: HCT-15
A549 = test system: A549
COLO 205 = test system: COLO 205
UACC-62 = test system: UACC-62
ACHN = test system: ACHN
NCI-H226 = test system: NCI-H226
OVCAR-5 = test system: OVCAR-5
UO-31 = test system: UO-31
KM12 = test system: KM12
MDA-MB-435 = test system: MDA-MB-435
MDA-N = test system: MDA-N
BT-549 = test system: BT-549
RXF 393 = test system: RXF 393
SNB-19 = test system: SNB-19
U-251 = test system: U-251
MOLT-4 = test system: MOLT-4
SF-268 = test system: SF-268
DU-145 = test system: DU-145
HCC 2998 = test system: HCC 2998
Hs-578T = test system: Hs-578T
PC-3 = test system: PC-3
HOP-62 = test system: HOP-62
NCI/ADR-RES = test system: NCI/ADR-RES
SF-295 = test system: SF-295
CCRF-CEM = test system: CCRF-CEM
MDA-MB-231 = test system: MDA-MB-231
HCT-116 = test system: HCT-116
Malme-3M = test system: Malme-3M
SK-MEL-2 = test system: SK-MEL-2
K562 = test system: K562
A498 = test system: A498
HOP-92 = test system: HOP-92
SW-620 = test system: SW-620
TK-10 = test system: TK-10
CAKI-1 = test system: CAKI-1
T47D = test system: T47D
LOX IMVI = test system: LOX IMVI
SK-MEL-28 = test system: SK-MEL-28
HT-29 = test system: HT-29
OVCAR-8 = test system: OVCAR-8
IGROV-1 = test system: IGROV-1
OVCAR-4 = test system: OVCAR-4
SK-MEL-5 = test system: SK-MEL-5
SR = test system: SR
MCF7 = test system: MCF7
HL-60 = test system: HL-60
UACC-257 = test system: UACC-257
SF-539 = test system: SF-539
SNB-75 = test system: SNB-75
OVCAR-3 = test system: OVCAR-3

Measured: GI50

CCOC(=O)CN1C(=O)c2c(NC(=O)C(=O)O)cccc2S1(=O)=O
> 100 µM: HCT-15
inactive: M14 > 100 µM | NCI-H522 > 100 µM | 786-0 > 100 µM | RPMI-8226 > 100 µM | SK-OV-3 > 100 µM | EKVX > 100 µM | NCI-H23 > 100 µM | SN12C > 100 µM | NCI-H460 > 100 µM | A549 > 100 µM | COLO 205 > 100 µM | UACC-62 > 100 µM | ACHN > 100 µM | NCI-H226 > 100 µM | OVCAR-5 > 100 µM | UO-31 > 100 µM | KM12 > 100 µM | MDA-MB-435 > 100 µM | MDA-N > 100 µM | BT-549 > 100 µM | RXF 393 > 100 µM | SNB-19 > 100 µM | U-251 > 100 µM | MOLT-4 > 100 µM | SF-268 > 100 µM | DU-145 > 100 µM | HCC 2998 > 100 µM | Hs-578T > 100 µM | PC-3 > 100 µM | HOP-62 > 100 µM | NCI/ADR-RES > 100 µM | SF-295 > 100 µM | CCRF-CEM > 100 µM | MDA-MB-231 > 100 µM | HCT-116 > 100 µM | Malme-3M > 100 µM | SK-MEL-2 > 100 µM | K562 > 100 µM | A498 > 100 µM | HOP-92 > 100 µM | SW-620 > 100 µM | TK-10 > 100 µM | CAKI-1 > 100 µM | T47D > 100 µM | LOX IMVI > 100 µM | SK-MEL-28 > 100 µM | HT-29 > 100 µM | OVCAR-8 > 100 µM | IGROV-1 > 100 µM | OVCAR-4 > 100 µM | SK-MEL-5 > 100 µM | SR > 100 µM | MCF7 > 100 µM | HL-60 > 100 µM | UACC-257 > 100 µM

CC(C)(C)c1cc(C(C)(C)C)c2sc(=S)oc2c1O
4.98 µM: HCT-15
inactive: M14 10.4 µM | NCI-H522 5.9 µM | 786-0 7.45 µM | SF-539 2.39 µM | RPMI-8226 7.33 µM | SK-OV-3 17.9 µM | EKVX 3.85 µM | NCI-H23 5.37 µM | SN12C 6.14 µM | NCI-H460 6.1 µM | A549 6.55 µM | COLO 205 14.5 µM | UACC-62 10.4 µM | ACHN 8.53 µM | NCI-H226 15.2 µM | OVCAR-5 7.46 µM | UO-31 4.12 µM | KM12 4.79 µM | MDA-MB-435 8.17 µM | MDA-N 6.01 µM | BT-549 8.51 µM | RXF 393 4.69 µM | SNB-19 12.7 µM | SNB-75 6.49 µM | U-251 6.3 µM | MOLT-4 5.2 µM | SF-268 3.4 µM | DU-145 11.7 µM | Hs-578T 4.43 µM | PC-3 4.29 µM | HOP-62 14.9 µM | NCI/ADR-RES 9.89 µM | SF-295 10.5 µM | CCRF-CEM 3.76 µM | MDA-MB-231 13.6 µM | HCT-116 6.25 µM | Malme-3M 15.8 µM | OVCAR-3 5.14 µM | SK-MEL-2 8.79 µM | K562 15 µM | A498 12.9 µM | HOP-92 14.1 µM | SW-620 9.1 µM | TK-10 1.18 µM | CAKI-1 5.64 µM | T47D 5.19 µM | LOX IMVI 5.05 µM | SK-MEL-28 8.09 µM | HT-29 14.9 µM | OVCAR-8 6.34 µM | IGROV-1 9.98 µM | OVCAR-4 11.7 µM | SK-MEL-5 8.17 µM | SR 3.18 µM | MCF7 6.79 µM | HL-60 7.45 µM | UACC-257 14.3 µM
